Results: patent US10995091B2 (Proximagen, LLC, priority 2010, dated 2021)
Where a name gives a salt, the structure may show the parent alone.

Target: T1, Human CXCR4 transfected HEK293 cells (Homo sapiens, UniProt P61073)
T1 construct: expressed in transfected cells; host or cells: HEK293
Experiment: CXCR4 functional calcium assay (calcium flux FLIPR, antagonism of SDF1 response)
Type: cell-based
Conditions: CXCR4 functional activity, antagonism of SDF1 (EC50 concentration), read-out: CXCR4 fKi
Procedure, shortened: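 Dose-dependent antagonism of the SDF1 response was read by FLIPR as Fluo-4 calcium signal (2 μM dye) in CXCR4-expressing human HEK293 cells, in HBSS with probenecid, BSA and HEPES at pH 7.4 and 37° C. Test compound was given before an EC50-level SDF1 challenge. Curves were then fitted.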

T1 sequence (P61073 whole entry): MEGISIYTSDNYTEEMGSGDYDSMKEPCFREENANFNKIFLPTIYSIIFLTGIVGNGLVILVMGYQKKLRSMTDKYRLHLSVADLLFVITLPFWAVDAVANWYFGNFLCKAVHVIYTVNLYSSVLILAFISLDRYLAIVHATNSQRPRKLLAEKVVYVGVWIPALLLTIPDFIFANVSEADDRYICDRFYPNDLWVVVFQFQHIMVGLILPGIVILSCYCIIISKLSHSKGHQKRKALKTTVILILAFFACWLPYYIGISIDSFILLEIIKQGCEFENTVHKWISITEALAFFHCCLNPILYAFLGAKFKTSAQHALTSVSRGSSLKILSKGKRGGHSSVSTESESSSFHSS

SMILES	Ki
[2H]C1([2H])CCN(c2cccc(C(=O)Nc3ccncc3)n2)CCN1C1CCN(C(C)C)CC1 [Example 186, 6-{5,5-Dihydrogenio-4-[1-(propan-2-yl)piperidin-4-yl]-1,4-diazepan-1-yl}-N-(pyridin-4-yl)pyridine-2-carboxamide]	< 20 nM
[2H]C1([2H])CCN(c2cccc(C(=O)Nc3ccncc3)n2)CCN1C1CCN(C(C)C)CC1F (stereo not shown) [Example 187, 6-{4-[3-Fluoro-1-(propan-2-yl)piperidin-4-yl]-5,5-dihydrogenio-1,4-diazepan-1-yl}-N-(pyridin-4-yl)pyridine-2-carboxamide]	20 to 100 nM
[2H]C1([2H])CCN(c2cccc(C(=O)Nc3ccncc3)n2)CCN1C1CCN([C@H](C)CC)CC1 [Example 188, 6-(4-{1-[(2R)-Butan-2-yl]piperidin-4-yl}-5,5-dihydrogenio-1,4-diazepan-1-yl)-N-(pyridin-4-yl)pyridine-2-carboxamide]	< 20 nM
[2H]C1([2H])CCN(c2cccc(C(=O)Nc3ccncc3)n2)CCN1C1CCN([C@@H](C)CC)CC1 [Example 189, 6-(4-{1-[(2S)-Butan-2-yl]piperidin-4-yl}-5,5-dihydrogenio-1,4-diazepan-1-yl)-N-(pyridin-4-yl)pyridine-2-carboxamide]	< 20 nM
[2H]C1([2H])CCN(c2cccc(C(=O)Nc3ccncc3)n2)CCN1C1CCN([C@@H](C)C(F)(F)F)CC1 [Example 190, 6-(5,5-Dihydrogenio-4-{1-[(2S)-1,1,1-trifluoropropan-2-yl]piperidin-4-yl}-1,4-diazepan-1-yl)-N-(pyridin-4-yl)pyridine-2-carboxamide]	< 20 nM
[2H]C1([2H])CCN(c2cccc(C(=O)Nc3ccncc3)n2)CCN1C1CCN(C2CCCC2)CC1 [Example 191, 6-[4-(1-Cyclopentylpiperidin-4-yl)-5,5-dihydrogenio-1,4-diazepan-1-yl]-N-(pyridin-4-yl)pyridine-2-carboxamide]	< 20 nM
[2H]C1([2H])CCN(c2cccc(C(=O)NCC3CC3)n2)CCN1C1CCN(C(C)C)CC1 [Example 192, N-(Cyclopropylmethyl)-6-{5,5-dihydrogenio-4-[1-(propan-2-yl)piperidin-4-yl]-1,4-diazepan-1-yl}pyridine-2-carboxamide]	20 to 100 nM
CC(C)N1CCC(N2CCCN(c3cccc(C(=O)Nc4ccncc4)n3)CC2C)CC1 (stereo not shown) [Example 193, 6-{3-Methyl-4-[1-(propan-2-yl)piperidin-4-yl]-1,4-diazepan-1-yl}-N-(pyridin-4-yl)pyridine-2-carboxamide]	< 20 nM
CC(C)N1CCC(N2CCCN(c3cccc(C(=O)NCC4CC4)n3)CC2C)CC1 (stereo not shown) [Example 194, N-(Cyclopropylmethyl)-6-{3-methyl-4-[1-(propan-2-yl)piperidin-4-yl]-1,4-diazepan-1-yl}pyridine-2-carboxamide]	20 to 100 nM
[2H]C1([2H])CCN(c2cccc(C(=O)Nc3ccncc3)n2)CC(C)N1C1CCN(C(C)C)CC1 (stereo not shown) [Example 195, 6-{5,5-Dihydrogenio-3-methyl-4-[1-(propan-2-yl)piperidin-4-yl]-1,4-diazepan-1-yl}-N-(pyridin-4-yl)pyridine-2-carboxamide]	< 20 nM
[2H]C1([2H])CCN(c2cccc(C(=O)Nc3ccncc3)n2)CC(C)N1C1CCN([C@@H](C)C(F)(F)F)CC1 (stereo partly drawn) [Example 196, 6-(5,5-Dihydrogenio-3-methyl-4-{1-[(2S)-1,1,1-trifluoropropan-2-yl]piperidin-4-yl}-1,4-diazepan-1-yl)-N-(pyridin-4-yl)pyridine-2-carboxamide]	20 to 100 nM
CC(C)N1CCC(N2CC3CCC2CN(c2cccc(C(=O)Nc4ccncc4)n2)C3)CC1 (stereo not shown) [Example 197, 6-{6-[1-(Propan-2-yl)piperidin-4-yl]-3,6-diazabicyclo[3.2.2]nonan-3-yl}-N-(pyridin-4-yl)pyridine-2-carboxamide]	20 to 100 nM
CC(C)N1CCC(N2CC3CCC2CN(c2cccc(C(=O)Nc4ccncc4)n2)C3)C(F)C1 (stereo not shown) [Example 198]	100 to 500 nM
CC(C)N1CCC(N2CC3CCC2CN(c2cccc(C(=O)NCC4CC4)n2)C3)CC1 (stereo not shown) [Example 199, N-(Cyclopropylmethyl)-6-{6-[1-(propan-2-yl)piperidin-4-yl]-3,6-diazabicyclo[3.2.2]nonan-3-yl}pyridine-2-carboxamide trihydrochloride]	500 to 1000 nM
CC(C)N1CCC(N2CC3CC(C2)N(c2cccc(C(=O)NCC4CC4)n2)C3)CC1 (stereo not shown) [Example 200, N-(Cyclopropylmethyl)-6-{3-[1-(propan-2-yl)piperidin-4-yl]-3,6-diazabicyclo[3.2.1]octan-6-yl}pyridine-2-carboxamide]	500 to 1000 nM
CC(C)N1CCOCC1CCN1CCCN(c2cccc(C(=O)Nc3ccncc3)n2)CC1 (stereo not shown) [Example 201, 6-(4-{2-[4-(Propan-2-yl)morpholin-3-yl]ethyl}-1,4-diazepan-1-yl)-N-(pyridin-4-yl)pyridine 2-carboxamide]	100 to 500 nM

SMILES	Ki
CC(C)N1CCN(C)[C@H](CN2CCCN(c3cccc(C(=O)Nc4ccncc4)n3)CC2)C1 [Example 202, 6-(4-{[(2R)-1-Methyl-4-(propan-2-yl)piperazin-2-yl]methyl}-1,4-diazepan-1-yl)-N-(pyridin-4-yl)pyridine-2-carboxamide]	500 to 1000 nM
[2H]C1([2H])CCN(c2cccc(C(=O)Nc3ccncc3)n2)CCN1C1CCN(Cc2ccc(F)cc2Cl)CC1 [Example 203, 6-(4-{1-[(2-Chloro-4-fluorophenyl)methyl]piperidin-4-yl}-5,5-dihydrogenio-1,4-diazepan-1-yl)-N-(pyridin-4-yl)pyridine-2-carboxamide]	< 20 nM
[2H]C1([2H])CCN(c2cccc(C(=O)Nc3ccncc3)n2)CCN1C1CCN(Cc2ccccc2Cl)CC1 [Example 204, 6-(4-{1-[(2-Chlorophenyl)methyl]piperidin-4-yl}-5,5-dihydrogenio-1,4-diazepan-1-yl)-N-(pyridin-4-yl)pyridine-2-carboxamide]	< 20 nM
[2H]C1([2H])CCN(C2CCN(Cc3ccc(F)cc3Cl)CC2)CCN1c1cccc(C(=O)Nc2ccncc2)n1 [Example 205, 6-(4-{1-[(2-Chloro-4-fluorophenyl)methyl]piperidin-4-yl}-7,7-dihydrogenio-1,4-diazepan-1-yl)-N-(pyridin-4-yl)pyridine-2-carboxamide]	< 20 nM
[2H]C1([2H])CCN(c2cccc(C(=O)Nc3ccncc3)n2)CC(C)N1C1CCN(Cc2ccccc2Cl)CC1 (stereo not shown) [Example 206, 6-(4-{1-[(2-Chlorophenyl)methyl]piperidin-4-yl}-5,5-dihydrogenio-3-methyl-1,4-diazepan-1-yl)-N-(pyridin-4-yl)pyridine-2-carboxamide]	< 20 nM
[2H]C1([2H])CCN(c2cccc(C(=O)Nc3ccncc3)n2)CC(C)N1C1CCN(Cc2ccc(F)cc2Cl)CC1 (stereo not shown) [Example 207, 6-(4-{1-[(2-Chloro-4-fluorophenyl)methyl]piperidin-4-yl}-5,5-dihydrogenio-3-methyl-1,4-diazepan-1-yl)-N-(pyridin-4-yl)pyridine-2-carboxamide]	< 20 nM
O=C(Nc1ccncc1)c1cccc(N2CC3CCC(C2)N(C2CCN(Cc4ccccc4Cl)CC2)C3)n1 (stereo not shown) [Example 208, 6-(6-{1-[(2-Chlorophenyl)methyl]piperidin-4-yl}-3,6-diazabicyclo[3.2.2]nonan-3-yl)-N-(pyridin-4-yl)pyridine-2-carboxamide]	100 to 500 nM
O=C(Nc1ccncc1)c1cccc(N2CC3CCC(C2)N(C2CCN(Cc4ccc(F)cc4Cl)CC2)C3)n1 (stereo not shown) [Example 209, 6-(6-{1-[(2-Chloro-4-fluorophenyl)methyl]piperidin-4-yl}-3,6-diazabicyclo[3.2.2]nonan-3-yl)-N-(pyridin-4-yl)pyridine-2-carboxamide]	100 to 500 nM
CC(C)N1CCC(N2CCCN(c3cccc(C(=O)Nc4ccncc4)n3)CC2)C(F)C1 (stereo not shown) [Example 210, 6-{4-[3-Fluoro-1-(propan-2-yl)piperidin-4-yl]-1,4-diazepan-1-yl}-N-(pyridin-4-yl)pyridine-2-carboxamide]	< 20 nM
[2H]C1([2H])CCN(C2CCN(C(C)C)CC2F)CCN1c1cccc(C(=O)Nc2ccncc2)n1 (stereo not shown) [Example 211, 6-{4-[3-Fluoro-1-(propan-2-yl)piperidin-4-yl]-7,7-dihydrogenio-1,4-diazepan-1-yl}-N-(pyridin-4-yl)pyridine-2-carboxamide]	20 to 100 nM
CC(C)N1CCC(N2CCCN(c3cccc(-c4ncc(C5CC5)[nH]4)n3)CC2)C(F)C1 (stereo not shown) [Example 212, 1-[6-(4-Cyclopropyl-1H-imidazol-2-yl)pyridin-2-yl]-4-[3-fluoro-1-(propan-2-yl)piperidin-4-yl]-1,4-diazepane]	100 to 500 nM
Cc1nc(-c2cccc(N3CCCN(C4CCN(C(C)C)CC4F)CC3)n2)[nH]c1C1CC1 (stereo not shown) [Example 213, 1-[6-(4-Cyclopropyl-5-methyl-1H-imidazol-2-yl)pyridin-2-yl]-4-[3-fluoro-1-(propan-2-yl)piperidin-4-yl]-1,4-diazepane]	20 to 100 nM
Cc1nc(-c2cccc(N3CCCN(C4CCN(C5CCCC5)CC4F)CC3)n2)[nH]c1C1CC1 (stereo not shown) [Example 214, 1-(1-Cyclopentyl-3-fluoropiperidin-4-yl)-4-[6-(4-cyclopropyl-5-methyl-1H-imidazol-2-yl)pyridin-2-yl]-1,4-diazepane]	100 to 500 nM
CC(C)N1CCC(N2CCCN(c3cccc(C(=O)NCc4cccnc4)n3)CC2)CC1C (stereo not shown) [Example 215, 6-{4-[2-Methyl-1-(propan-2-yl)piperidin-4-yl]-1,4-diazepan-1-yl}-N-(pyridin-3-ylmethyl)pyridine-2-carboxamide]	20 to 100 nM
CC(C)N1CC[C@@H](N2CCCN(c3cccc(C(=O)NCC4CC4)n3)CC2)[C@H](O)C1 [Example 216, N-(Cyclopropylmethyl)-6-{4-[(3R)-3-hydroxy-1-(propan-2-yl)piperidin-4-yl]-1,4-diazepan-1-yl}pyridine-2-carboxamide]	100 to 500 nM
